Measured values taken from PMC4438233, “Antibacterial effects of Traditional Chinese Medicine monomers against Streptococcus pneumoniae via inhibiting pneumococcal histidine kinase (VicK)” (Frontiers in Microbiology, 2015).
“And” between values parts separate entries of the source, which are not always exact repeats. Equal values may be shown once. Read-outs that look alike come from different tables or passages of the source.

Experiments:
S. pneumoniae NCTC7466 [1] = test: MIC against S. pneumoniae NCTC7466 (D39); type: cell-based; conditions: Streptococcus pneumoniae, NCTC7466
Experimental: (§1) Minimum inhibitory concentration (MIC) assays for the antibacterial activities of the compounds were performed according to the standard […] method of the Clinical and Laboratory Standards Institute of America. MIC testing of drug-resistant S. pneumoniae, drug-resistant S. aureus, streptococci and antimicrobial combination was also performed using the same method. Briefly, the drugs were serially diluted 2-fold into eight wells with C+Y medium, yielding final concentrations ranging from […]. Then 10^6 CFU bacteria were added to each well. Inoculated medium containing 1% DMSO served as a bacterial growth control, whereas uninoculated medium served as a sterility control. The plates were incubated at 37°C for 12–16 h. […] The experiment was repeated three times.

full-length VicK protein = molecular target: T1, full-length VicK protein (Streptococcus pneumoniae, UniProt Q8DPL8); test: Inhibition assay for ATPase activity of VicK (Kinase-Glo Luminescent Kinase Assay); type: biochemical; conditions: 6 μg VicK, 5 μM ATP, read-out: IC50 (inhibition of VicK ATPase activity / autophosphorylation) (converted)
T1 construct: 6 His; made in house
T1 sequence (Q8DPL8 whole entry): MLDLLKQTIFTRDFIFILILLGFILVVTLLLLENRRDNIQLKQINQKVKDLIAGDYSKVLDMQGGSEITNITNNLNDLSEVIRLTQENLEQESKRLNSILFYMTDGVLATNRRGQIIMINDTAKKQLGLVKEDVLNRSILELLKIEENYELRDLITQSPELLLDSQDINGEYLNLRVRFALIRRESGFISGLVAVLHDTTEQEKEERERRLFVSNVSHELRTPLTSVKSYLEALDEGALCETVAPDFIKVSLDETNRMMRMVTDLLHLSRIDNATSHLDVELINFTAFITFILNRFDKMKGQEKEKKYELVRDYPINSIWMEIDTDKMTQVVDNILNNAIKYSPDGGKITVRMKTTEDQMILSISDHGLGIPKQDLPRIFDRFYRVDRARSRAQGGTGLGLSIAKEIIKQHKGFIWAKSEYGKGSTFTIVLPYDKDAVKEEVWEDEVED
Experimental: The inhibitory activities of the Chinese medicine monomers for the ATPase activity of the full-length VicK protein were evaluated using the Kinase-Glo™Luminescent Kinase Assay (Promega, Madison, USA). Briefly, 6 μg VicK protein was pre-incubated with a series of dilution of compounds in the reaction buffer at 37°C for 30 min. 5 μM ATP was added and incubated for another 30 min. Kinase-Glo™Reagent was also added to detect the remaining ATP recorded from luminescence measurements (RLU). In parallel, the VicK protein with no addition of compounds was used as a control, and the mixture with compounds excluding the VicK protein served as another control. The rate of protein phosphorylation (Rp) inhibition by the compounds was calculated from Equation (1).
(1) Rp=1−RLU(compound+ATP+Reagent) −RLU(compound+ATP+vick+Reagent)/RLU(ATP +Reagent)−RLU(ATP+vick+Reagent)×100%
The half maximal inhibitory concentration (IC50), which is the concentration of inhibition of 50% VicK protein autophosphorylation, was determined by GraphPad Prism 5 (Qin et al., [2006]).

S. pneumoniae = test: Checkerboard test with erythromycin or tetracycline against S. pneumoniae; type: cell-based, Streptococcus pneumoniae
Experimental: The antimicrobial effects of different combinations of two antimicrobial agents were assayed using the checkerboard test (Bajaksouzian et al., [1997]). Each experiment was repeated thrice. […] The FIC index (FICI) was calculated using the following formula:
(§2) (2) FIC=FICA+FICB=[A]/MICA+[B]/MICB
(§3) where [A] and [B] are the concentrations of drugs A and B, respectively; MICA and FICA are the MIC and FIC of drug A for the organism, respectively; and MICB, and FICB are the MIC and FIC of drug B for the organism, respectively. The FIC index obtained was interpreted as follows: =0.5, synergy; FIC > 2.0, antagonism (Gupta and Kohli, [2003]).

S. pneumoniae NCTC7466 [2] = test: Mouse sepsis model, survival time; type: in vivo, BALB/c mice; conditions: i.p. infection 1 × 10^3 CFU, drug i.p. thrice a day for 3 d, untreated control 28.8 ± 1.25
Experimental: Female BALB/c mice (12–15 per group) aged 4–6 weeks were used to evaluate the antimicrobial effects of the compounds in vivo. In sepsis models, the mice were intraperitoneally infected with 100 μL S. pneumoniae NCTC7466 strain suspension (1 × 10^3 CFU). […] Two control groups were injected with 100 μL 1% DMSO (dissolved the drugs, negative control) or PEN (0.42 mg/kg/d, positive control) following the same injection route. The result was expressed as cumulative survival times following 7 d of observation.

S. pyogenes = test: MIC against S. pyogenes; type: cell-based; conditions: Streptococcus pyogenes
Experimental: as §1

[3] = test system: Penicillin-resistant S. pneumoniae strains; test: Checkerboard test with penicillin against penicillin-resistant S. pneumoniae; type: cell-based, Streptococcus pneumoniae; conditions: Streptococcus pneumoniae, agent alone
Experimental: as §1
The antimicrobial effects of different combinations of two antimicrobial agents were assayed using the checkerboard test (Bajaksouzian et al., [1997]). Each experiment was repeated thrice. The in vitro interaction between the five drugs with PEN was quantified by the fractional inhibitory concentration (FIC). The FIC index (FICI) was calculated using the following formula:
as §2, §3

Cytotoxicity assay (MTT) = type: cell-based; conditions: African green monkey, Vero cells
Experimental: The cytotoxicity of the drugs to Vero cells (African green monkey kidney cells) was detected as previously described (Huang et al., [2012]) with minor modifications. In 96-well cell culture plates, the cells (~10^3 cells per well) were exposed to the serially diluted drugs for 48 h. Then, relative cell numbers were assayed by co-incubation with 3-(4, 5-dimethylthiazol-2-yl)-2, 5-diphenyltetrazolium bromide for 4 h at 37°C in 5% CO2. Purple formazan salts were dissolved with DMSO after incubation. The absorbance of each well was measured at 595 nm and then converted to percentages of the control (cells treated with 1% DMSO). The concentration of the derivatives with 50% cytotoxicity for Vero cells (CC50) was calculated using GraphPad Prism 5 (San Diego, CA).

S. pseudopneumoniae = test: MIC against S. pseudopneumoniae; type: cell-based; conditions: Streptococcus pseudopneumoniae
Experimental: as §1

S. mitis = test: MIC against S. mitis; type: cell-based; conditions: Streptococcus mitis
Experimental: as §1

S. mutans = test: MIC against S. mutans; type: cell-based; conditions: Streptococcus mutans
Experimental: as §1

pneumococcal strains = test: MIC against clinical pneumococcal strains (penicillin susceptible, intermediate, resistant); type: cell-based, Streptococcus pneumoniae; conditions: for MIC50 / MIC90: Streptococcus pneumoniae
Experimental: as §1

[4] = in combination with Erythromycin

SMILES: COC1=CC(=O)O[C@@H](/C=C/c2ccc3c(c2)OCO3)C1 [Compound 4, Kavahin]
- MIC (S. pneumoniae NCTC7466 [1]): 68.5 µg/mL and 250 µM
- IC50 (full-length VicK protein): 4.6 µM
- IC50 (full-length VicK protein; value in parentheses): 4.56 µM
- FICI (S. pneumoniae; [4]): 0.5
- Outcome (S. pneumoniae; [4]): Synergy (=0.5, synergy)
- FICI (S. pneumoniae; in combination with Tetracycline): 0.51
- Mean survival of mice ± SEM (S. pneumoniae NCTC7466 [2]; listed as Kavahin): 71.1 ± 7.1 h
- Mean survival of mice ± SEM (S. pneumoniae NCTC7466 [2]; listed as kavahin): 71 h
- MIC (S. pyogenes): 274 µg/mL
- MIC ([3]; read-out: MIC, Alone, strain 652336): 548 µg/mL
- MIC ([3]; read-out: MIC, Alone, strain 736007): 274 µg/mL
- MIC ([3]; read-out: MIC, Alone, strain 8364981): 548 µg/mL
- MIC ([3]; read-out: MIC, Alone, strain 12092624): 274 µg/mL
- CC50 at 48 h (Cytotoxicity assay (MTT)): > 8000 µM
- MIC (S. pseudopneumoniae): 34 µg/mL
- MIC (S. mitis): 274 µg/mL
- MIC (S. mutans): 274 µg/mL
- MIC of pneumococcal strains, Range (pneumococcal strains; Penicillin intermediate (n = 12)): 68 to 518 µg/mL
- MIC of pneumococcal strains, Range (pneumococcal strains; Penicillin resistant (n = 15)): 68.5 to 548 µg/mL
- MIC of pneumococcal strains, Range (pneumococcal strains; Penicillin susceptible (n = 7)): 34 to 272 µg/mL
- MIC50 (pneumococcal strains; read-out: MIC of pneumococcal strains, MIC50, Penicillin intermediate (n = 12)): 137 µg/mL
- MIC50 (pneumococcal strains; read-out: MIC of pneumococcal strains, MIC50, Penicillin resistant (n = 15)): 274 µg/mL
- MIC50 (pneumococcal strains; read-out: MIC of pneumococcal strains, MIC50, Penicillin susceptible (n = 7)): 68.5 µg/mL
- MIC90 (pneumococcal strains; read-out: MIC of pneumococcal strains, MIC90, Penicillin intermediate (n = 12)): 274 µg/mL
- MIC90 (pneumococcal strains; read-out: MIC of pneumococcal strains, MIC90, Penicillin resistant (n = 15)): 548 µg/mL
- MIC90 (pneumococcal strains; read-out: MIC of pneumococcal strains, MIC90, Penicillin susceptible (n = 7)): 136 µg/mL
